Among the test systems are MDA-MB-435; HCT-116; HOP-92; MOLT-4; SK-OV-3; SNB-75; MDA-N; 786-0; NCI/ADR-RES; U-251; Malme-3M; NCI-H226; CCRF-CEM; BT-549; IGROV-1; RXF 393; A549; CAKI-1; HCT-15; LOX IMVI.
Common to all, as to experiment: DTP human tumour cell line panel, 48 h

This note sets out measurements from ChEMBL document CHEMBL1201862, “PubChem BioAssay data set” (2004).

SMILES strings stand for the structures.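 Dose response: 5 concentrations. Exposure: 48 h. Format: 96-well plates. Endpoint: linear interpolation; highest concentration if not reached. The concentration for 50% growth inhibition is given as GI50.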 Activity calls are given as the source filed them. Rule as the data show it: active = GI50 up to about 1.1 µM and inactive = higher. Bounds are passed on as bounds.

Regarding `Cc1cc(C)c2nc3c(c(C(O)C4CCCCN4)c2c1)CC/C3=C\c1ccc(Cl)cc1` (stereo not given), the GI50 in the test on MDA-MB-435 is 55.1 µM (inactive); with HCT-116 it was 32 µM (inactive); in the test with HOP-92, > 100 µM (inactive); in the test with MOLT-4 it was 26.7 µM (inactive); with SK-OV-3 it was 74.3 µM (inactive); with SNB-75 it was 54 µM (inactive). Also, the GI50 with MDA-N was 50.4 µM (inactive); in the test on 786-0, 67.8 µM (inactive); in the test with NCI/ADR-RES it was 52.1 µM (inactive); in the test on U-251, 60.4 µM (inactive); in the test with Malme-3M, > 100 µM (inactive); with NCI-H226, > 100 µM (inactive). Besides, the GI50 in the test on CCRF-CEM was 25.4 µM (inactive); with BT-549, > 100 µM (inactive); with IGROV-1 it was 84.1 µM (inactive); with RXF 393, 27.7 µM (inactive); in the test with A549 it was 76 µM (inactive); in the test with CAKI-1, 94.6 µM (inactive). The compound also gave a GI50 in the test with HCT-15 of 58.7 µM.
For `CC1(C)OC(=O)N(c2ccccc2)C12C=Cc1cc([N+](=O)[O-])ccc1O2` (stereo not given), the GI50 is 20 µM (inactive) in the test with MDA-MB-435; 33.3 µM (inactive) in the test on HCT-116; 20.2 µM (inactive) in the test on HOP-92; 21.7 µM (inactive) in the test with MOLT-4; 28.9 µM (inactive) in the test with SK-OV-3; 43.2 µM (inactive) in the test on SNB-75. Moreover, the GI50 is 22.6 µM (inactive) in the test with MDA-N; 77.3 µM (inactive) in the test with 786-0; 30.2 µM (inactive) in the test on NCI/ADR-RES; 35.8 µM (inactive) in the test with U-251; 44 µM (inactive) with NCI-H226; 29.1 µM (inactive) in the test on CCRF-CEM. For the same compound, the GI50 in the test with LOX IMVI was 48.2 µM (inactive); in the test with BT-549, 51.6 µM (inactive); in the test with IGROV-1, 32.7 µM (inactive); in the test on RXF 393, 60.3 µM (inactive); in the test with A549, 53.2 µM (inactive); in the test on CAKI-1, 50.1 µM (inactive). Further, the GI50 with HCT-15 is 48.8 µM.
`CCCCC(=O)OC[n+]1cccc(-c2c(COC(=O)NC(C)C)c(COC(=O)NC(C)C)c3n2CCC3)c1`: the GI50 was 64.9 µM (inactive) in the test with MDA-MB-435; 37.2 µM (inactive) with HCT-116; 26.3 µM (inactive) with HOP-92; 8.93 µM (inactive) with MOLT-4; > 57.8 µM (inactive) with SK-OV-3; 50 µM (inactive) in the test with SNB-75. In addition, the GI50 in the test with MDA-N was 99.1 µM (inactive); with 786-0, 23.1 µM (inactive); in the test on NCI/ADR-RES it was 34.9 µM (inactive); in the test with U-251, 45.3 µM (inactive); in the test with Malme-3M it was 32.7 µM (inactive); in the test on NCI-H226, 55.7 µM (inactive). Moreover, the GI50 with CCRF-CEM is 7.93 µM (inactive); in the test on LOX IMVI, 21.7 µM (inactive); in the test on BT-549 it was 28.8 µM (inactive); with IGROV-1 it was 51.5 µM (inactive); with RXF 393, 22.9 µM (inactive); in the test with A549 it was 81.1 µM (inactive). The GI50 was 12.3 µM (inactive) in the test on CAKI-1 and 53.3 µM with HCT-15.
Regarding `C=CCn1c(=O)c(C(=O)Nc2nc(C34CC5CC(CC(C5)C3)C4)cs2)c(O)c2ccccc21`, the GI50 is 63.4 µM (inactive) in the test with MDA-MB-435; 30 µM (inactive) with HCT-116; 28.4 µM (inactive) in the test on HOP-92; 27.4 µM (inactive) in the test with MOLT-4; > 100 µM (inactive) with SNB-75; 48.6 µM (inactive) in the test with MDA-N. Also, the GI50 with 786-0 was 39.8 µM (inactive); with NCI/ADR-RES it was 15 µM (inactive); in the test with U-251, 50.2 µM (inactive); with Malme-3M, 26 µM (inactive); in the test with NCI-H226, 50.7 µM (inactive); with CCRF-CEM it was 37.3 µM (inactive). For the same compound, the GI50 is 34 µM (inactive) in the test with LOX IMVI; 24.4 µM (inactive) with BT-549; 33.1 µM (inactive) in the test on IGROV-1; 31.6 µM (inactive) in the test on RXF 393; 18.2 µM (inactive) with A549; 58.9 µM (inactive) in the test with CAKI-1. In the test on HCT-15, this compound showed a GI50 of 21.5 µM.
Take `CCCCC(=O)N/S(=N/C(=O)c1ccccc1)C(Cl)(Cl)Cl` (stereo not given): the GI50 in the test on MDA-MB-435, in the test on HCT-116, with HOP-92, in the test with MOLT-4, in the test on SK-OV-3 and in the test on SNB-75 was > 100 µM (inactive) each time. Moreover, the GI50 in the test with MDA-N, in the test on 786-0, in the test with NCI/ADR-RES, with U-251, in the test with Malme-3M and with NCI-H226 was > 100 µM (inactive) throughout. Besides, the GI50 in the test on CCRF-CEM, in the test on LOX IMVI, with BT-549, with IGROV-1, in the test with RXF 393 and with A549 was > 100 µM (inactive) each time. This compound displayed a GI50 in the test with HCT-15 of over 100 µM.
Take `O=c1[nH][nH]c(=S)c(=O)[nH]1`: the GI50 in the test with MDA-MB-435, in the test on HCT-116, in the test on HOP-92, with MOLT-4, in the test with SK-OV-3 and in the test on SNB-75 was > 100 µM (inactive) in each case. Further, the GI50 with MDA-N, in the test on 786-0, in the test with NCI/ADR-RES, with U-251, with Malme-3M and with NCI-H226 was > 100 µM (inactive) each time. The GI50 with CCRF-CEM, in the test on LOX IMVI, in the test on BT-549, in the test on IGROV-1, with RXF 393 and in the test on A549 was > 100 µM (inactive) each time. The GI50 in the test on CAKI-1 was > 100 µM (inactive); in the test with HCT-15 it was over 100 µM.
`O=C(/C=C/c1ccccc1Br)c1ccccc1`: the GI50 is 2.46 µM (inactive) in the test with MDA-MB-435; 1.89 µM (inactive) with HCT-116; 16.7 µM (inactive) with HOP-92; 2.84 µM (inactive) in the test with MOLT-4; 16.9 µM (inactive) in the test on SK-OV-3; 12 µM (inactive) in the test on SNB-75. The GI50 in the test on MDA-N is 6.71 µM (inactive); in the test with 786-0 it was 2.07 µM (inactive); in the test with NCI/ADR-RES, 6.08 µM (inactive); in the test with U-251 it was 1.56 µM (inactive); with NCI-H226, 17.1 µM (inactive); in the test with CCRF-CEM, 0.259 µM (active). Moreover, the GI50 was 1.36 µM (inactive) with LOX IMVI; 13.6 µM (inactive) in the test on BT-549; 2.99 µM (inactive) in the test with IGROV-1; 7.82 µM (inactive) in the test with RXF 393; 12 µM (inactive) in the test on A549; 2.96 µM (inactive) in the test on CAKI-1. Also, the GI50 with HCT-15 is 2.11 µM.
For `Nc1ccc(S(=O)(=O)Nc2ccc(Nc3c4ccccc4nc4ccccc34)cc2)cc1`, the GI50 in the test on MDA-MB-435 was 9.33 µM (inactive); in the test with HCT-116, 0.165 µM (active); with HOP-92, 0.5 µM (active); in the test on MOLT-4 it was < 0.01 µM (active); with SK-OV-3 it was 0.0174 µM (active); in the test on SNB-75 it was 0.0158 µM (active). Further, the GI50 in the test on MDA-N was 10.2 µM (inactive); with 786-0, 0.0413 µM (active); in the test on NCI/ADR-RES, 4.83 µM (inactive); in the test with U-251, 0.0154 µM (active); with Malme-3M it was 0.0675 µM (active); in the test on NCI-H226, 0.0101 µM (active). Also, the GI50 was < 0.01 µM (active) in the test on CCRF-CEM; 0.015 µM (active) with LOX IMVI; 0.0906 µM (active) with BT-549; 0.769 µM (active) in the test on IGROV-1; 0.316 µM (active) in the test on RXF 393; < 0.01 µM (active) in the test on A549. Also, the GI50 in the test on CAKI-1 was < 0.0126 µM (active); in the test with HCT-15 it was 0.579 µM.

A word on the GI50: it is the concentration that inhibits growth by half.
